This note sets out measurements from patent US20140309210A1, “INDAZOLE COMPOUNDS, COMPOSITIONS AND METHODS OF USE THEREOF” (Genentech, Inc., priority 2011, published 2014).

SMILES strings stand for the structures.

One test has as its target T1, purified ITK (Invitrogen PV3875) (Homo sapiens, UniProt Q08881).
T1 construct: purchased Invitrogen PV3875
T1 sequence (Q08881 1-620): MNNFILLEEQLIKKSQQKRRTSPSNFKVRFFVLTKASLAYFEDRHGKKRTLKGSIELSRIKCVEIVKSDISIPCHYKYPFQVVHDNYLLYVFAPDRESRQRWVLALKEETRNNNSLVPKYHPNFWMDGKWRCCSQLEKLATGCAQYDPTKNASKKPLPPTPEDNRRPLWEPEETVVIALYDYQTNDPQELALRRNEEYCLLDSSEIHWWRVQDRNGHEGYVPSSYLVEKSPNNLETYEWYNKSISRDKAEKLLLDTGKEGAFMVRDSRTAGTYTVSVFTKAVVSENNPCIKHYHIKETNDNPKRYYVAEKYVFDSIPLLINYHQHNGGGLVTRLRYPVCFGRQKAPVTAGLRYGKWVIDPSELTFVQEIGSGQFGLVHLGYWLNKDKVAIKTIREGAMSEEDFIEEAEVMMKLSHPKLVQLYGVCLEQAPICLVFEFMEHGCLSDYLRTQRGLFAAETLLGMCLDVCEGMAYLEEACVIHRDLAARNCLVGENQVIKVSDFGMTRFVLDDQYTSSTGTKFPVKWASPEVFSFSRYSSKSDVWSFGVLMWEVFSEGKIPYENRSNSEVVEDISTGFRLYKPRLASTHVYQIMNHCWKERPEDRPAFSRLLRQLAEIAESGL
The experiment in a line: ITK peptide phosphorylation assay (Caliper LabChip or LCMS). Conditions: Table 1, Examples 141-279. The format is biochemical. In short, it runs like this:
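Purified human ITK peptide phosphorylation, quenched with EDTA (50 mM final) for Caliper LabChip separation or TCA (5% v/v final) for UPLC-MS/MS MRM quantification. Ki derived via Morrison tight-binding equation, corrected for competitive inhibition using ATP concentration relative to Km,app.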
The Ki is a measure of affinity in units of concentration, obtained from inhibition or displacement. A higher Ki goes with lower affinity. The molecule `CN(CCC(c1ccccc1)n1cc(NC(=O)c2n[nH]c3ccccc23)cn1)CC(F)(F)F` (centres unmarked) [Example 269, N-[1-[3-[methyl(2,2,2-trifluoroethyl)a-mino]-1-phenyl-propyl]pyrazol-4-yl]-1H-indazole-3-carboxamide] displayed a Ki of 105 nM. Still for that read-out and setting: with `CN(CCO)c1nc(Cn2cc(NC(=O)c3n[nH]c4cc(-c5cn[nH]c5)ccc34)cn2)cs1` [Example 141, N-[1-[[2-[2-hydroxyethyl(meth-yl)amino]thiazol-4-yl]methyl]pyrazol-4-yl]-6-(1H-pyrazol-4-yl)-1H-indazole-3-carboxamide] the figure was 2.8 nM; with `N#Cc1cccc(Cn2cc(NC(=O)c3n[nH]c4cc(-c5ccc(N)nc5)c(F)cc34)cn2)c1` [Example 152, 6-(6-amino-3-pyridyl)-N-[1-[(3-cyanophenyl)meth-yl]pyrazol-4-yl]-5-fluoro-1H-indazole-3-carboxamide], 12.8 nM; with `O=C(Nc1cnn(Cc2csc(N3CCC(O)C3)n2)c1)c1n[nH]c2cc(-c3cn[nH]c3)ccc12` (centres unmarked) [Example 158, N-[1-[[2-(3-hydroxypyrrolidin-1-yl)thiazol-4-yl]methyl]pyrazol-4-yl]-6-(1H-pyrazol-4-yl)-1H-indazole-3-carboxamide], 3.93 nM. Molecule `N#Cc1cccc(Cn2cc(NC(=O)c3n[nH]c4cc(-c5cncnc5)ccc34)cn2)c1` [Example 164, N-[1-[(3-cyanophenyl)meth-yl]pyrazol-4-yl]-6-pyrimidin-5-yl-1H-indazole-3-carboxamide] returned a Ki of 16.9 nM. As to `O=C(Nc1cnn(CC2CCCOC2)c1)c1n[nH]c2cc(-c3cn[nH]c3)ccc12` (centres unmarked) [Example 241, 6-(1H-pyrazol-4-yl)-N-[1-(tetrahydropyran-3-ylmethyl)pyrazol-4-yl]-1H-indazole-3-carboxamide], the affinity corresponds to a Ki of 2.79 nM. Same read-out and setting: with `CC(C)CN1CCOC(Cn2cc(NC(=O)c3n[nH]c4cc(-c5cn[nH]c5)ccc34)cn2)C1` (centres unmarked) [Example 252, N-[1-[(4-isobutylmorpholin-2-yl)methyl]pyrazol-4-yl]-6-(1H-pyrazol-4-yl)-1H-indazole-3-carboxamide] the figure was 3.58 nM. As for `O=C(Nc1cnn(Cc2ccccc2)c1)c1n[nH]c2cc(-c3cnc4c(c3)CCCO4)ccc12` [Example 209, N-(1-benzylpyrazol-4-yl)-6-(3,4-dihydro-2H-pyrano[2,3-b]pyridin-6-yl)-1H-indazole-3-carboxamide], the Ki was 66.2 nM. On the same count and under the same terms, with `O=C(Nc1cnn(Cc2cncc(Br)c2)c1)c1n[nH]c2cc(-c3cn[nH]c3)ccc12` [Example 143, N-[1-[(5-bromo-3-pyridyl)methyl]py-razol-4-yl]-6-(1H-pyrazol-4-yl)-1H-indazole-3-carboxamide] the figure was 0.614 nM; with `O=C(Nc1cnn(Cc2ccccc2)c1)c1n[nH]c2c(F)cccc12` [Example 230, N-(1-benzylpyrazol-4-yl)-7-fluoro-1H-indazole-3-carboxamide], 726 nM; with `N#Cc1cccc(Cn2cc(NC(=O)c3n[nH]c4ccc(C5(CO)CC5)cc34)cn2)c1` [Example 193, N-[1-[(3-cyanophenyl)meth-yl]pyrazol-4-yl]-5-[1-(hydroxymeth-yl)cyclopropyl]-1H-indazole-3-carboxamide], 26.3 nM.

Consider `CC(CO)c1ccc2[nH]nc(C(=O)Nc3cnn(Cc4cccc(C#N)c4)c3)c2c1` (centres unmarked) [Example 187, N-[1-[(3-cyanophenyl)meth-yl]pyrazol-4-yl]-5-(2-hydroxy-1-methyl-ethyl)-1H-indazole-3-carboxamide], for which the affinity, expressed as Ki, was 7.8 nM. The same measure, in the same setting: with `O=C(Nc1cnn(CC2CCC2)c1)c1n[nH]c2cc(-c3cn[nH]c3)ccc12` [Example 236, N-[1-(cyclobutylmeth-yl)pyrazol-4-yl]-6-(1H-pyrazol-4-yl)-1H-indazole-3-carboxamide] the figure was 6.09 nM.

For the molecule `O=C(Nc1cnn(Cc2cccnc2)c1)c1n[nH]c2cc(-c3cn[nH]c3)ccc12` [Example 216, 6-(1H-pyrazol-4-yl)-N-[1-(3-pyridylmethyl)py-razol-4-yl]-1H-indazole-3-carboxamide], affinity was put at a Ki of 1.12 nM. On the same count and under the same terms, next, `O=C(Nc1cnn(Cc2csc(C3CCNCC3)n2)c1)c1n[nH]c2cc(-c3cn[nH]c3)ccc12` [Example 160, N-[1-[[2-(4-piperidyl)thiazol-4-yl]methyl]pyrazol-4-yl]-6-(1H-pyrazol-4-yl)-1H-indazole-3-carboxamide]: 4.65 nM; `O=C(Nc1cnn(C(CO)c2ccccc2)c1)c1n[nH]c2ccccc12` (centres unmarked) [Example 257, N-[1-(2-hydroxy-1-phenyl-ethyl)pyrazol-4-yl]-1H-indazole-3-carboxamide]: 35.5 nM; `O=C(Nc1cnn(Cc2ccccc2)c1)c1n[nH]c2cc(-c3cnccn3)ccc12` [Example 204, N-(1-benzyl-1H-pyrazol-4-yl)-6-(pyrazin-2-yl)-1H-indazole-3-carboxamide]: 37.8 nM.

The test is the same for the next values; noted with them: Table 2, Examples 1-140, class symbols.
With `CN(C)CCNCc1cccc(Cn2cc(NC(=O)c3n[nH]c4ccccc34)cn2)c1` [Example 102, N-(1-(3-((2-(dimethylamino)ethylamino)methyl)benzyl)-1H-pyrazol-4-yl)-1H-indazole-3-carboxamide], the Ki lay in the range of 1 to 100 nM. Take `N#Cc1cccc(Cn2cc(NC(=O)c3n[nH]c4ccc(-c5ccccc5)cc34)cn2)c1` [Example 79, N-(1-(3-Cyanobenzyl)-1H-pyrazol-4-yl)-5-phenyl-1H-indazole-3-carboxamide]: the Ki was greater than 100 nM.

`O=C(Nc1cnn(Cc2cccc(-c3ccncc3)c2)c1)c1n[nH]c2cc(-c3cn[nH]c3)ccc12` [Example 37, 6-(1H-Pyrazol-4-yl)-1H-indazole-3-carboxylic acid [1-(3-pyridin-4-yl-benzyl)-1H-pyrazol-4-yl]-amide]: the Ki is 0.01 to 1 nM. On to `O=C(Nc1cnn(Cc2ccc(CNCC3CC3)cc2)c1)c1n[nH]c2ccccc12` [Example 108, N-(1-(4-((cyclopropylmethylamino)methyl)benzyl)-1H-pyrazol-4-yl)-1H-indazole-3-carboxamide], for which the Ki lay within 1 to 100 nM. The same measure, in the same setting: next, `N#Cc1cccc(Cn2cc(NC(=O)c3n[nH]c4ccc(-c5cn[nH]c5)cc34)cn2)c1` [Example 81, N-(1-(3-Cyanobenzyl)-1H-pyrazol-4-yl)-5-(1H-pyrazol-4-yl)-1H-indazole-3-carboxamide]: 1 to 100 nM. Same read-out and setting: with `COc1cccc2[nH]nc(C(=O)Nc3cnn(Cc4cccc(C#N)c4)c3)c12` [Example 4, N-(1-(3-cyanobenzyl)-1H-pyrazol-4-yl)-4-methoxy-1H-indazole-3-carboxamide] the figure was greater than 100 nM. Molecule `O=C(Nc1cnn(Cc2cccc(F)c2)c1)c1n[nH]c2ccccc12` [Example 63, N-(1-(3-fluorobenz)-1H-pyrazol-4-yl)-1H-indazole-3-carboxamide] displayed a Ki of 1 to 100 nM. `CC(C)(c1cccc(C#N)c1)n1cc(NC(=O)c2n[nH]c3ccccc23)cn1` [Example 77, N-(1-(2-(3-Cyanophenyl)propan-2-yl)-1H-pyrazol-4-yl)-1H-indazole-3-carboxamide] registered a Ki greater than 100 nM. Still for that read-out and setting: next, `CNC(=O)c1ccc(Cn2cc(NC(=O)c3n[nH]c4cc(-c5cccnc5)ccc34)cn2)o1` [Example 33, N-[1-[[5-(methylcarbamoyl)-2-furyl]methyl]pyrazol-4-yl]-6-(3-pyridyl)-1H-indazole-3-carboxamide]: 1 to 100 nM.

The molecule `O=C(Nc1cnn(Cc2csc(-c3ccccn3)n2)c1)c1n[nH]c2cc(-c3cn[nH]c3)ccc12` [Example 24, 6-(1H-pyrazol-4-yl)-N-[1-[[2-(2-pyridyl)thiazol-4-yl]methyl]pyrazol-4-yl]-1H-indazole-3-carboxamide] registered a Ki of 0.01 to 1 nM. On the same count and under the same terms, next, `CNCc1ccc(Cn2cc(NC(=O)c3n[nH]c4ccccc34)cn2)cc1` [Example 112, N-(1-(4-((methylamino)methyl)benzyl)-1H-pyrazol-4-yl)-1H-indazole-3-carboxamide]: 1 to 100 nM; `CC(c1ccccc1)n1cc(NC(=O)c2n[nH]c3ccccc23)cn1` (centres unmarked) [Example 131, N-(1-(1-phenylethyl)-1H-pyrazol-4-yl)-1H-indazole-3-carboxamide]: 1 to 100 nM.

Take `O=C(Nc1cnn(Cc2ccccc2C(F)(F)F)c1)c1n[nH]c2ccccc12` [Example 60, N-(1-(2-(trifluoromethyl)benzyl)-1H-pyrazol-4-yl)-1H-indazole-3-carboxamide]: the Ki was greater than 100 nM. Same read-out and setting: with `O=C(Nc1cnn(Cc2ccc(F)c(F)c2)c1)c1n[nH]c2ccccc12` [Example 68, N-(1-(3,4-difluorobenzyl)-1H-pyrazol-4-yl)-1H-indazole-3-carboxamide] the figure was 1 to 100 nM; with `CCNCc1cccc(Cn2cc(NC(=O)c3n[nH]c4ccccc34)cn2)c1` [Example 99, N-(1-(3-((ethylamino)methyl)benzyl)-1H-pyrazol-4-yl)-1H-indazole-3-carboxamide], 1 to 100 nM. Still for that read-out and setting: next, `N#Cc1cncc(-c2ccc3c(C(=O)Nc4cnn(Cc5cscn5)c4)n[nH]c3c2)c1` [Example 44, 6-(5-Cyano-pyridin-3-yl)-1H-indazole-3-carboxylic acid (1-thiazol-4-ylmethyl-1H-pyrazol-4-yl)-amide]: 1 to 100 nM.

Staying with this test, now noted: Table 3, specific values for certain examples.
In turn, `COc1cccc2[nH]nc(C(=O)Nc3cnn(Cc4cccc(C#N)c4)c3)c12` [Example 4, N-(1-(3-cyanobenzyl)-1H-pyrazol-4-yl)-4-methoxy-1H-indazole-3-carboxamide] had an inhibition constant (Ki) of 1300 nM. As for `CC(C)(c1cccc(C#N)c1)n1cc(NC(=O)c2n[nH]c3ccccc23)cn1` [Example 77, N-(1-(2-(3-Cyanophenyl)propan-2-yl)-1H-pyrazol-4-yl)-1H-indazole-3-carboxamide], the Ki was determined as 307 nM.
